The source of these data is patent US11725036B2, “Modified lipidated relaxin B chain peptides and their therapeutic use” (Sanofi, priority 2018, dated 2023).

Starred links: 1 amine or outer side, 2 acyl side, 3 side chain; linkers in the order of their positions; H or OH if unused. Non-standard residues stand in square brackets, D forms with d. Residues, ends and D or L forms follow the SMILES beside them. Groups on a side chain read outwards from the residue. *: point of attachment. X1 = CCCCCCCCCCCCCCCC(=O)N[C@@H](CCC(=O)N[C@@H](CCC(=O)N[C@@H](CCC(=O)NCCCOCCOCCOCCCNC(=O)CCC(=O)NCCCOCCOCCOCCCNC(=O)CCC(=O)NCCCOCCOCCOCCCN*)C(=O)O)C(=O)O)C(=O)O; γGlu = O=C(O)[C@H](CCC(=O)[*:2])N[*:1]; Palmitoyl = CCCCCCCCCCCCCCCC(=O)*; Suc = O=C(CCC(=O)[*:2])[*:1]; αMeK = C[C@](N)(CCCCN)C(=O)O; hLys = NCCCCC[C@H](N)C(=O)O; AEEA = NCCOCCOCC(=O)O; Aib = CC(C)(N)C(=O)O

The target in this experiment is T1, RXFP1 (Homo sapiens, UniProt Q9HBX9).
T1 construct: OVCAR5 cells expressing endogenous RXFP1; endogenous in cells; host or cells: OVCAR5
T1 sequence (Q9HBX9 1-757): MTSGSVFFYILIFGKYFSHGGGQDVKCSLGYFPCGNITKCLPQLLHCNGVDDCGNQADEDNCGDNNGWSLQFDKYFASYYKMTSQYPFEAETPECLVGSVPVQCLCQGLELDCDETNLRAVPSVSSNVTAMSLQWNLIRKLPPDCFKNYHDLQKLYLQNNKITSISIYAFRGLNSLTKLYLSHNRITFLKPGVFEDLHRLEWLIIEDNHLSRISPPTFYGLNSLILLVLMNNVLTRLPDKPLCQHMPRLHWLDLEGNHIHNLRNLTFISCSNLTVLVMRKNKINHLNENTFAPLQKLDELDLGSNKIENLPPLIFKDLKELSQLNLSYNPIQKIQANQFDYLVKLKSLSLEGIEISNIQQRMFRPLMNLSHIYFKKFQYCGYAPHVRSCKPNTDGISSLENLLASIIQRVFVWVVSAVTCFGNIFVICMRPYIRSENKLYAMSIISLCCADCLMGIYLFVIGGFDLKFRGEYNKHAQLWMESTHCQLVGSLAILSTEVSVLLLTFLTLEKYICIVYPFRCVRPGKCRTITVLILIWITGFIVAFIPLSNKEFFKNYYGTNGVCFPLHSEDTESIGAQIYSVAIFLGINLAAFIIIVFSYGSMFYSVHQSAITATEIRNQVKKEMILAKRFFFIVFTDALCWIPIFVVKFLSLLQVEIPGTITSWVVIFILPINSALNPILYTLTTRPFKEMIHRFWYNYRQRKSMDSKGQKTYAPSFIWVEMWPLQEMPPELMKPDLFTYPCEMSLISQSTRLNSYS
Put plainly: OVCAR5 cAMP assay (HTRF). The format is cell-based. To be noted: for EC50: OVCAR 5 cells expressing endogenous RXFP1, cAMP readout; for Emax: OVCAR 5 cells, maximal cAMP relative to H2-relaxin. An excerpt: OVCAR5 cells expressing endogenous RXFP1 were used to test RXP1 agonist properties of peptides of the invention, and in particular of the peptides of sequence SEQ ID NO: 1-97.
Since RXFP1 is a Gs coupled GPCR, cAMP was used as readout of RXFP1 activation.
Isobutyl Methyl Xanthine (IBMX) was used to inhibit phosphodiesterase activity facilitating cAMP measurements. HTRF (Homogenous Time Resolved Fluorescence) technology was used to detect cAMP due to its great sensitivity.
In summary, OVCAR5 were grown in regular medium (RPMI) containing 10% fetal calf serum (FCS) and 1% antibiotics (penicillin/streptomycin).
Before the experiments, cells were detached with accutase and incubated for 40 minutes at 37° C. with 1 mM (3-isobutyl-1-methylxanthine) IBMX.
Cells were then distributed in 384 black well plates containing increasing concentrations of the different peptides in a fix volume of medium (without FCS).
After an incubation of 30 min at 37° C. in an humid incubator in 5% CO2, the reaction was stopped by adding a fixed volume of a solution containing a lysis buffer and cAMP-D2 (cAMP labeled with the dye d2) and the anti cAMP antibody linked to Europium and used for cAMP detection.
Readout of the experiment were performed on a fluorimeter allowing HTRF measurement. Activation curves were generated by plotting the intracellular value of cAMP versus log 10 of the compound concentration.
The 50% activation concentration (EC50) was calculated by nonlinear regression using the sigmoidal dose-response (variable slope) equation with Prism 5 software.
Emax % was determined as the maximal intracellular value of cAMP for test compound (upper limit of cAMP vs concentration curve) divided by the maximal intracellular value of cAMP for H2-relaxin determined in the same test occasion multiplied by 100. Emax %=100×[cAMPtest cpd]/[cAMPH2-Rlx]
A general note: Changes in cAMP serve as a functional read-out for many G protein-coupled receptors.

By EC50 is commonly meant the concentration at which the effect is half-maximal. Higher therefore signals lower potency in that assay. A word on the Emax: it is the size of the effect at its maximum, as opposed to the concentration needed. `CCCCCCCCCCCCCCCC(=O)N[C@@H](CCC(=O)N[C@@H](CCC(=O)N[C@@H](CCC(=O)NCCCOCCOCCOCCCNC(=O)CCC(=O)NCCCOCCOCCOCCCNC(=O)CCC(=O)NCCCOCCOCCOCCCNC(=O)CCC(=O)NCCCC[C@H](NC(=O)CNC(=O)[C@H](CCC(=O)O)NC(=O)C(C)(C)NC(=O)C(C)(C)NC(=O)[C@@H](NC(=O)[C@H](CCCCNC(C)=O)NC(=O)[C@H](C)NC(=O)[C@H](CCCNC(=N)N)NC(=O)[C@@H](NC(=O)[C@H](CCCCN)NC(=O)[C@H](CCC(=O)O)NC(=O)[C@H](CCCNC(=N)N)NC(=O)CNC(=O)[C@H](CCC(=O)O)NC(=O)[C@H](CC(C)C)NC(C)=O)C(C)C)[C@@H](C)CC)C(=O)N[C@@H](CO)C(=O)N[C@H](C(=O)N[C@@H](Cc1c[nH]c2ccccc12)C(=O)NC(C)(C)C(=O)N[C@@H](CCCCN)C(=O)N[C@@H](CCCNC(=N)N)C(=O)N[C@@H](C)C(=O)N[C@@H](CCCCNC(C)=O)C(N)=O)[C@@H](C)O)C(=O)O)C(=O)O)C(=O)O` [compound 35] (Ac-LEGREKVRAK(Ac)I[Aib][Aib]EGK([Suc-X1])STW[Aib]KRAK(Ac)-NH2): the EC50 came to 2.33 nM and the Emax turned out to be 91%.

Regarding `CCCCCCCCCCCCCCCC(=O)N[C@@H](CCC(=O)N[C@@H](CCC(=O)N[C@@H](CCC(=O)NCCOCCOCC(=O)NCCOCCOCC(=O)NCCOCCOCC(=O)NCCOCCOCC(=O)NCCCC[C@H](NC(=O)CNC(=O)[C@H](CCC(=O)O)NC(=O)C(C)(C)NC(=O)C(C)(C)NC(=O)[C@@H](NC(=O)[C@H](CCCCNC(C)=O)NC(=O)[C@H](C)NC(=O)[C@H](CCCNC(=N)N)NC(=O)[C@@H](NC(=O)[C@H](CCCCN)NC(=O)[C@H](CCC(=O)O)NC(=O)[C@H](CCCNC(=N)N)NC(=O)CNC(=O)[C@H](CCC(=O)O)NC(=O)[C@H](CC(C)C)NC(C)=O)C(C)C)[C@@H](C)CC)C(=O)N[C@@H](CO)C(=O)N[C@H](C(=O)N[C@@H](Cc1ccccc1)C(=O)N[C@@H](CO)C(=O)N[C@@](C)(CCCCN)C(=O)N[C@@H](CCCNC(=N)N)C(=O)N[C@@H](C)C(=O)N[C@@H](CCCCNC(C)=O)C(N)=O)[C@@H](C)O)C(=O)O)C(=O)O)C(=O)O` [compound 8] (Ac-LEGREKVRAK(Ac)I[Aib][Aib]EGK([AEEA-AEEA-AEEA-AEEA-γGlu-γGlu-γGlu-Palmitoyl])STFS[αMeK]RAK(Ac)-NH2), the EC50 amounted to 1.86 nM and the Emax was determined as 92%.

`CCCCCCCCCCCCCCCC(=O)N[C@@H](CCC(=O)N[C@@H](CCC(=O)N[C@@H](CCC(=O)NCCCOCCOCCOCCCNC(=O)CCC(=O)NCCCOCCOCCOCCCNC(=O)CCC(=O)NCCCOCCOCCOCCCNC(=O)CCC(=O)NCCCC[C@H](NC(=O)CNC(=O)[C@H](CCC(=O)O)NC(=O)C(C)(C)NC(=O)C(C)(C)NC(=O)[C@@H](NC(=O)[C@H](CCC(N)=O)NC(=O)[C@H](C)NC(=O)[C@H](CCCNC(=N)N)NC(=O)[C@@H](NC(=O)[C@H](CCCCN)NC(=O)[C@H](CCC(=O)O)NC(=O)[C@H](CCCNC(=N)N)NC(=O)CNC(=O)[C@H](CCC(=O)O)NC(=O)[C@H](CC(C)C)NC(C)=O)C(C)C)[C@@H](C)CC)C(=O)N[C@@H](CO)C(=O)N[C@H](C(=O)N[C@@H](Cc1ccccc1)C(=O)N[C@@H](CO)C(=O)N[C@@](C)(CCCCN)C(=O)N[C@@H](CCCNC(=N)N)C(=O)N[C@@H](C)C(=O)N[C@@H](CCCCNC(C)=O)C(N)=O)[C@@H](C)O)C(=O)O)C(=O)O)C(=O)O` [compound 48] (Ac-LEGREKVRAQI[Aib][Aib]EGK([Suc-X1])STFS[αMeK]RAK(Ac)-NH2) yielded an EC50 of 0.45 nM and an Emax of 96%. For `CCCCCCCCCCCCCCCC(=O)N[C@@H](CCC(=O)N[C@@H](CCC(=O)N[C@@H](CCC(=O)NCCCOCCOCCOCCCNC(=O)CCC(=O)NCCCOCCOCCOCCCNC(=O)CCC(=O)NCCCOCCOCCOCCCNC(=O)CCC(=O)NCCCC[C@H](NC(=O)CNC(=O)[C@H](CCC(=O)O)NC(=O)C(C)(C)NC(=O)C(C)(C)NC(=O)[C@@H](NC(=O)[C@H](CCCCNC(C)=O)NC(=O)[C@H](C)NC(=O)[C@H](CCCNC(=N)N)NC(=O)[C@@H](NC(=O)[C@H](CCCCCN)NC(=O)[C@H](CCC(=O)O)NC(=O)[C@H](CCCNC(=N)N)NC(=O)CNC(=O)[C@H](CCC(=O)O)NC(=O)[C@H](CC(C)C)NC(C)=O)C(C)C)[C@@H](C)CC)C(=O)N[C@@H](CO)C(=O)N[C@H](C(=O)N[C@@H](Cc1ccccc1)C(=O)N[C@@H](CO)C(=O)N[C@@](C)(CCCCN)C(=O)N[C@@H](CCCNC(=N)N)C(=O)N[C@@H](C)C(=O)N[C@@H](CCCCNC(C)=O)C(N)=O)[C@@H](C)O)C(=O)O)C(=O)O)C(=O)O` [compound 28] (Ac-LEGRE[hLys]VRAK(Ac)I[Aib][Aib]EGK([Suc-X1])STFS[αMeK]RAK(Ac)-NH2), in that order: 0.62 nM and 88%. Regarding `CCCCCCCCCCCCCCCC(=O)N[C@@H](CCC(=O)N[C@@H](CCC(=O)N[C@@H](CCC(=O)NCCCOCCOCCOCCCNC(=O)CCC(=O)NCCCOCCOCCOCCCNC(=O)CCC(=O)NCCCOCCOCCOCCCNC(=O)CCC(=O)NCCCC[C@H](NC(=O)CNC(=O)[C@H](CCC(=O)O)NC(=O)C(C)(C)NC(=O)C(C)(C)NC(=O)[C@@H](NC(=O)[C@H](CCCCNC(C)=O)NC(=O)C(C)(C)NC(=O)[C@H](CCCNC(=N)N)NC(=O)[C@@H](NC(=O)[C@H](CCCCN)NC(=O)[C@H](CCC(=O)O)NC(=O)[C@H](CCCNC(=N)N)NC(=O)CNC(=O)[C@H](CCC(=O)O)NC(=O)[C@H](CC(C)C)NC(C)=O)C(C)C)[C@@H](C)CC)C(=O)N[C@@H](CO)C(=O)N[C@H](C(=O)N[C@@H](Cc1c[nH]c2ccccc12)C(=O)N[C@@H](CO)C(=O)NC(C)(C)C(=O)N[C@@H](CCCNC(=N)N)C(=O)N[C@@H](CCCCN)C(=O)N[C@@H](CCCCNC(C)=O)C(N)=O)[C@@H](C)O)C(=O)O)C(=O)O)C(=O)O` [compound 82] (Ac-LEGREKVR[Aib]K(Ac)I[Aib][Aib]EGK([Suc-X1])STWS[Aib]RKK(Ac)-NH2), the Emax is 95%. The molecule `CCCCCCCCCCCCCCCC(=O)N[C@@H](CCC(=O)N[C@@H](CCC(=O)N[C@@H](CCC(=O)NCCCOCCOCCOCCCNC(=O)CCC(=O)NCCCOCCOCCOCCCNC(=O)CCC(=O)NCCCOCCOCCOCCCNC(=O)CCC(=O)NCCCC[C@H](NC(=O)CNC(=O)[C@H](CCC(=O)O)NC(=O)C(C)(C)NC(=O)C(C)(C)NC(=O)[C@@H](NC(=O)[C@H](CCCCNC(C)=O)NC(=O)[C@H](C)NC(=O)[C@H](CCCNC(=N)N)NC(=O)[C@@H](NC(=O)[C@H](CCCCN)NC(=O)[C@H](CCC(=O)O)NC(=O)[C@H](CCCNC(=N)N)NC(=O)CNC(=O)[C@H](CCC(=O)O)NC(=O)[C@H](CC(C)C)NC(C)=O)C(C)C)[C@@H](C)CC)C(=O)N[C@@H](CO)C(=O)N[C@H](C(=O)N[C@@H](Cc1ccccc1)C(=O)N[C@@H](CO)C(=O)NC(C)(C)C(=O)N[C@@H](CCCNC(=N)N)C(=O)N[C@@H](C)C(=O)N[C@@H](CCCCNC(C)=O)C(N)=O)[C@@H](C)O)C(=O)O)C(=O)O)C(=O)O` [compound 2] (Ac-LEGREKVRAK(Ac)I[Aib][Aib]EGK([Suc-X1])STFS[Aib]RAK(Ac)-NH2) came in with an EC50 of 2.4 nM and an Emax of 99%.
